Laboratory results published in patent US12441736B2, “KIF18A inhibitors” (AMGEN INC., priority 2018, dated 2025).

Target: T1, Recombinant human KIF18A (1-467 His-tagged) protein (Homo sapiens, UniProt Q8NI77)
T1 construct: Recombinant human KIF18A (1-467 His-tagged) protein; His; made in house
Assay: KIF18A Enzyme Assay: microtubule-stimulated ATPase activity (ADP-Glo)
Format: biochemical
Conditions: 30 nM KIF18A, 30 μg/mL pig microtubules, 75 μM ATP, ADP-Glo luminescence
In short: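 His-tagged human KIF18A (1-467, baculovirus), 30 nM, pre-incubated 15 min with compound in Tris pH 7.5 containing 30 μg/mL taxol-stabilised pig microtubules. ATP was then added at Km (75 μM) for 15 min at room temperature. ADP was measured by ADP-Glo luminescence, and IC50 was fitted by 4-parameter logistic over 22 points.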

T1 sequence (Q8NI77 1-467): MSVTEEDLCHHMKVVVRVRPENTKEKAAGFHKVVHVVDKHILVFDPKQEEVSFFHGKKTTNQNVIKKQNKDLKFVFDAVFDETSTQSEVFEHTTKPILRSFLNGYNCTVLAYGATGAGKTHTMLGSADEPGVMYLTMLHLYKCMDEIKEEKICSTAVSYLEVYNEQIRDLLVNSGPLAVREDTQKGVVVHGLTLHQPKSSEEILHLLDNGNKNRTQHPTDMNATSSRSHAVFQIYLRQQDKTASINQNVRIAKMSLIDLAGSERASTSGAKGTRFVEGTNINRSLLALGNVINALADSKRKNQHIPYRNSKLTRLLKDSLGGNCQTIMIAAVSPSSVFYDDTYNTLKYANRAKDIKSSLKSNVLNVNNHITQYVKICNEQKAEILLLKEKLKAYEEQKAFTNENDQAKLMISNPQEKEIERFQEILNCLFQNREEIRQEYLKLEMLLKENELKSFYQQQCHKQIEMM
T1 sequence (P02550 whole entry partner): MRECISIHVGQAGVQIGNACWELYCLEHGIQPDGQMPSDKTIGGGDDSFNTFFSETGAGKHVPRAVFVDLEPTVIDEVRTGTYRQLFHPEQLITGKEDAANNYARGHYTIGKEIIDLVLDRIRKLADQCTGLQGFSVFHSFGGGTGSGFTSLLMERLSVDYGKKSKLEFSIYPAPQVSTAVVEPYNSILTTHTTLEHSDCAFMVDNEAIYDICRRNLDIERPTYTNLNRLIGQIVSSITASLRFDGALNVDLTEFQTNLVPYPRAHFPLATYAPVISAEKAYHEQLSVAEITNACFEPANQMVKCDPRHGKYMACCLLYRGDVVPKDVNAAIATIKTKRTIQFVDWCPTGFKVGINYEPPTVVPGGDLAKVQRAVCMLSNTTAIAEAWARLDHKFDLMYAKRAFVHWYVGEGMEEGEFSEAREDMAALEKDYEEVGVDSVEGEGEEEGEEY
T1 sequence (P02554 whole entry partner): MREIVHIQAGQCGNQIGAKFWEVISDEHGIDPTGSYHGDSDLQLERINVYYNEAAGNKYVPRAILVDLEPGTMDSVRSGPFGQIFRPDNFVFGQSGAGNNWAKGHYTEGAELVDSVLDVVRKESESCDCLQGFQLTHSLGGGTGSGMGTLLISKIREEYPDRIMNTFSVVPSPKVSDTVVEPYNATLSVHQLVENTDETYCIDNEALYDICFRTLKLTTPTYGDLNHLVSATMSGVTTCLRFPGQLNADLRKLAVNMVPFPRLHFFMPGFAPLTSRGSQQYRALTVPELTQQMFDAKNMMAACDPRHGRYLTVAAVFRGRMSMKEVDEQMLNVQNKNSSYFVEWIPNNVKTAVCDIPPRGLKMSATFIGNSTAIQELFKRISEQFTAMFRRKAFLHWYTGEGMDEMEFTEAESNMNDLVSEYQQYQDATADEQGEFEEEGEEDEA

Row | SMILES | IC50
1 | C[C@@H]1CN(c2cccc(NC(=O)c3ncc(N4C(=O)OCC4(C)C)nc3N3CCC4(CC3)CC4)n2)CCO1 [Example 103, 3-(6-azaspiro[2.5]oct-6-yl)-5-(4,4-dimethyl-2-oxo-1,3-oxazolidin-3-yl)-N-(6-((2R)-2-methyl-4-morpholinyl)-2-pyridinyl)-2-pyrazinecarboxamide] | 1940 nM
2 | CC(C)(CO)Nc1ccc(C(=O)Nc2cccc(N3CCOC(C(C)(C)O)C3)n2)c(N2CCC3(CC2)CC3)n1 (centres unmarked) [Example 186, 6-((1-hydroxy-2-methylpropan-2-yl)amino)-N-(6-(2-(2-hydroxypropan-2-yl)morpholino)pyridin-2-yl)-2-(6-azaspiro[2.5]octan-6-yl)nicotinamide] | 365 nM
3 | C[C@@H]1CN(c2cccc(NC(=O)c3ccc(NS(C)(=O)=O)nc3N3CCC4(CC3)CC4)n2)CCO1 [Example 218, 2-(6-azaspiro[2.5]octan-6-yl)-N-(6-((2R)-2-methyl-4-morpholinyl)-2-pyridinyl)-6-((methylsulfonyl)amino)-3-pyridinecarboxamide] | 150 nM
4 | CNC1CCCN(c2cccc(NC(=O)c3ccc(NC(C)(C)CO)nc3N3CCC4(CC3)CC4)n2)C1 (centres unmarked) [Example 233, 6-((1-hydroxy-2-methylpropan-2-yl)amino)-N-(6-(3-(methylamino)piperidin-1-yl)pyridin-2-yl)-2-(6-azaspiro[2.5]octan-6-yl)nicotinamide] | 999 nM
5 | O=C(Nc1cccc(N2CCC[C@@H](O)C2)n1)c1ccc(C(O)(CO)C(F)(F)F)nc1N1CCC2(CC1)CC2 (stereo partly drawn) [Example 242, N-(6-((R)-3-hydroxypiperidin-l-yl)pyridin-2-yl)-2-(6-azaspiro[2.5]octan-6-yl)-6-(1,1,1-trifluoro-2,3-dihydroxypropan-2-yl)nicotinamide] | 78.1 nM
6 | C[C@@H]1CN(c2cccc(NC(=O)c3ccc(S(=O)(=O)NC(C)(C)C)nc3N3CCC4(CC3)CC4)n2)CCO1 [Example 225, 2-(6-azaspiro[2.5]octan-6-yl)-N-(6-((2R)-2-methyl-4-morpholinyl)-2-pyridinyl)-6-((2-methyl-2-propanyl)sulfamoyl)-3-pyridinecarboxamide] | 102 nM
7 | CC(C)(C)NS(=O)(=O)c1cccc(NC(=O)c2ncc(NC(C)(CO)CO)nc2N2CCC3(CC2)CC3)n1 [Example 108, N-(6-(N-(tert-butyl)sulfamoyl)pyridin-2-yl)-5-((1,3-dihydroxy-2-methylpropan-2-yl)amino)-3-(6-azaspiro[2.5]octan-6-yl)pyrazine-2-carboxamide] | 87.8 nM
8 | O=C(Nc1cccnc1N1CCC2(CC1)CC2)c1cccc(N2CCOCC2)n1 [Example 245, N-(2-(6-azaspiro[2.5]oct-6-yl)-3-pyridinyl)-6-(4-morpholinyl)-2-pyridinecarboxamide] | 860 nM
9 | C[C@@H]1CN(c2cccc(NC(=O)c3ccc(N4CC(O)CC4(C)C)nc3N3CCC4(CC3)CC4)n2)CCO1 (stereo partly drawn) [Example 213, 6-(4-hydroxy-2,2-dimethylpyrrolidin-1-yl)-N-(6-((R)-2-methylmorpholino)pyridin-2-yl)-2-(6-azaspiro[2.5]octan-6-yl)nicotinamide] | 523 nM
10 | CC(C)(C)NS(=O)(=O)c1cccc(NC(=O)c2ncc(C(C)(O)C(F)(F)F)nc2N2CCC3(CC2)CC3)n1 (centres unmarked) [Example 110, N-(6-(N-(tert-butyl)sulfamoyl)pyridin-2-yl)-3-(6-azaspiro[2.5]octan-6-yl)-5-(1,1,1-trifluoro-2-hydroxypropan-2-yl)pyrazine-2-carboxamide] | 260 nM
11 | CC(C)(CO)Nc1ccc(C(=O)Nc2cccc(N3CCC(F)(F)C3)n2)c(N2CCC3(CC2)CC3)n1 [Example 129, 2-(6-azaspiro[2.5]oct-6-yl)-N-(6-(3,3-difluoro-l-pyrrolidinyl)-2-pyridinyl)-6-((2-hydroxy-1,1-dimethylethyl)amino)-3-pyridinecarboxamide] | 83.4 nM
12 | CC(C)(CO)Nc1ccc(C(=O)Nc2cccc(N3CCCC3(C)CO)n2)c(N2CCC3(CC2)CC3)n1 (centres unmarked) [Example 231, 6-((1-hydroxy-2-methylpropan-2-yl)amino)-N-(6-(2-(hydroxymethyl)-2-methylpyrrolidin-1-yl)pyridin-2-yl)-2-(6-azaspiro[2.5]octan-6-yl)nicotinamide] | 134 nM
13 | C[C@@H]1CN(c2cccc(NC(=O)c3ccc(NC(C)(CO)CO)nc3N3CCC4(CC3)CC4)n2)CCO1 [Example 147, (R)-6-((1,3-dihydroxy-2-methylpropan-2-yl)amino)-N-(6-(2-methylmorpholino)pyridin-2-yl)-2-(6-azaspiro[2.5]octan-6-yl)nicotinamide] | 53.4 nM
14 | CC(c1ccc(C(=O)Nc2cccc(N3CCO[C@H](C)C3)n2)c(N2CCC3(CC2)CC3)n1)S(C)(=O)=O (stereo partly drawn) [Example 244, N-(6-((R)-2-methylmorpholino)pyridin-2-yl)-6-(1-(methylsulfonyl)ethyl)-2-(6-azaspiro[2.5]octan-6-yl)nicotinamide] | 51.2 nM
15 | C[C@@H]1CN(c2cccc(NC(=O)c3ccc(C(C)(O)CO)nc3N3CCC4(CC3)CC4)n2)CCO1 (stereo partly drawn) [Example 166, 6-(1,2-dihydroxypropan-2-yl)-N-(6-((R)-2-methylmorpholino)pyridin-2-yl)-2-(6-azaspiro[2.5]octan-6-yl)nicotinamide] | 62.5 nM
16 | C[C@H]1COCCN1c1cccc(NC(=O)c2ccc(NC(C)(C)CO)nc2N2CCC3(CC2)CC3)n1 [Example 183, 2-(6-azaspiro[2.5]octan-6-yl)-6-((1-hydroxy-2-methyl-2-propanyl)amino)-N-(6-((3S)-3-methyl-4-morpholinyl)-2-pyridinyl)-3-pyridinecarboxamide] | 205 nM
17 | CC(C)(C)NS(=O)(=O)c1cccc(NC(=O)c2ccc(C(O)(CO)C(F)(F)F)nc2N2CCC3(CC2)CC3)n1 (racemic) [Example 172, N-(6-(N-(tert-butyl)sulfamoyl)pyridin-2-yl)-2-(6-azaspiro[2.5]octan-6-yl)-6-(1,1,1-trifluoro-2,3-dihydroxypropan-2-yl)nicotinamide] | 120 nM
18 | Cc1cc(NC(=O)c2ccc(CS(C)(=O)=O)nc2N2CCC3(CC2)CC3)nc(N2CCOCC2)c1 [Example 240, 2-(6-azaspiro[2.5]octan-6-yl)-N-(4-methyl-6-(4-morpholinyl)-2-pyridinyl)-6-((methylsulfonyl)methyl)-3-pyridinecarboxamide] | 107 nM
19 | CC1(C)CCN(c2cccc(NC(=O)c3ccc(NC(C)(C)CO)nc3N3CCC4(CC3)CC4)n2)C1 [Example 128, 2-(6-azaspiro[2.5]oct-6-yl)-N-(6-(3,3-dimethyl-l-pyrrolidinyl)-2-pyridinyl)-6-((2-hydroxy-1,1-dimethylethyl)amino)-3-pyridinecarboxamide] | 95.3 nM
20 | Cc1cc(NC(=O)c2ccc(NC(C)(C)CO)nc2N2CCC3(CC2)CC3)nc(N2CCOCC2)c1 [Example 155, 2-(6-azaspiro[2.5]octan-6-yl)-6-((1-hydroxy-2-methyl-2-propanyl)amino)-N-(4-methyl-6-(4-morpholinyl)-2-pyridinyl)-3-pyridinecarboxamide] | 71 nM
21 | CC(O)(c1ccc(NC(=O)c2cccc(N3CCOCC3)n2)c(N2CCC3(CC2)CC3)n1)C(F)(F)F (centres unmarked) [Example 246, N-(2-(6-Azaspiro[2.5]octan-6-yl)-6-(1,1,1-trifluoro-2-hydroxypropan-2-yl)pyridin-3-yl)-6-morpholinopicolinamide] | 292 nM
22 | C[C@@H]1CN(c2cccc(NC(=O)c3ccc([C@](O)(CO)C(F)(F)F)nc3N3CCC4(CC3)CC4)n2)CCO1 (single isomer, unassigned) [Example 207] | 105 nM
23 | CC(C)(CO)Nc1ccc(C(=O)Nc2cccc(N3CCC(O)CC3)n2)c(N2CCC3(CC2)CC3)n1 [Example 215, 2-(6-azaspiro[2.5]octan-6-yl)-6-((1-hydroxy-2-methyl-2-propanyl)amino)-N-(6-(4-hydroxy-1-piperidinyl)-2-pyridinyl)-3-pyridinecarboxamide] | 330 nM
24 | CC(C)(C)NS(=O)(=O)c1cccc(NC(=O)c2ncc(NC3(CO)CC3)nc2N2CCC3(CC2)CC3)n1 [Example 109, 3-(6-azaspiro[2.5]oct-6-yl)-5-((1-(hydroxymethyl)cyclopropyl)amino)-N-(6-((2-methyl-2-propanyl)sulfamoyl)-2-pyridinyl)-2-pyrazinecarboxamide] | 79.3 nM
25 | COCC(C)(CO)Nc1ccc(C(=O)Nc2cccc(N3CCO[C@H](C)C3)n2)c(N2CCC3(CC2)CC3)n1 (stereo partly drawn) [Example 217, 6-((1-hydroxy-3-methoxy-2-methylpropan-2-yl)amino)-N-(6-((R)-2-methylmorpholino)pyridin-2-yl)-2-(6-azaspiro[2.5]octan-6-yl)nicotinamide] | 222 nM
26 | CC(C)(CO)Nc1ccc(C(=O)Nc2cccc(N3C[C@H]4C[C@H]4C3)n2)c(N2CCC3(CC2)CC3)n1 [Example 136, N-(6-((1R,5S)-3-azabicyclo[3.1.0]hex-3-yl)-2-pyridinyl)-2-(6-azaspiro[2.5]oct-6-yl)-6-((2-hydroxy-1,1-dimethylethyl)amino)-3-pyridinecarboxamide] | 71.9 nM
27 | CC(C)(CCO)Nc1ccc(C(=O)Nc2cccc(N3CCO[C@H](CO)C3)n2)c(N2CCC3(CC2)CC3)n1 [Example 210, 2-(6-azaspiro[2.5]octan-6-yl)-6-((4-hydroxy-2-methyl-2-butanyl)amino)-N-(6-((2S)-2-(hydroxymethyl)-4-morpholinyl)-2-pyridinyl)-3-pyridinecarboxamide] | 239 nM
28 | CC(CO)(CO)Nc1ccc(C(=O)Nc2cccc(N3CCC(F)(F)C3)n2)c(N2CCC3(CC2)CC3)n1 [Example 149, 2-(6-azaspiro[2.5]oct-6-yl)-N-(6-(3,3-difluoro-1-pyrrolidinyl)-2-pyridinyl)-6-((1,3-dihydroxy-2-methyl-2-propanyl)amino)-3-pyridinecarboxamide] | 59.1 nM
29 | Cc1cc(NC(=O)c2ccc(NC(C)(C)CCO)nc2N2CCC3(CC2)CC3)nc(N2CCOCC2)c1 [Example 211, 2-(6-azaspiro[2.5]octan-6-yl)-6-((4-hydroxy-2-methyl-2-butanyl)amino)-N-(4-methyl-6-(4-morpholinyl)-2-pyridinyl)-3-pyridinecarboxamide] | 142 nM
